This is an account of results in ChEMBL document CHEMBL1201862, “PubChem BioAssay data set” (2004).

Test systems include RXF 393; HL-60; UO-31; HCT-116; HT-29; NCI-H226; PC-3; NCI/ADR-RES; OVCAR-4; SN12C; ACHN; T47D; OVCAR-3; IGROV-1; MDA-MB-231; Malme-3M; TK-10; CCRF-CEM; MDA-MB-435; EKVX.
Common to all, as to test: NCI anticancer screen, dose series, 48 h

Molecules are shown by their SMILES.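 96-well plates; 48 h exposure; 5 concentrations. Endpoints by linear interpolation between flanking doses. Not reached: highest tested concentration assigned. GI50: concentration for 50% inhibition of growth.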 Activity calls are given as the source filed them. Rule as the data show it: active = GI50 up to about 1.1 µM and inactive = higher.

For `Cc1ccc2nc3n(c2c1)C(c1c(F)cccc1F)SC3` (stereo not given), the GI50 was > 100 µM (inactive) with RXF 393; 71.6 µM (inactive) in the experiment with HL-60; > 100 µM (inactive) in the experiment with UO-31; > 100 µM (inactive) in the experiment on HCT-116; > 100 µM (inactive) with HT-29; > 100 µM (inactive) in the experiment on NCI-H226. In addition, the GI50 in the experiment with PC-3, with NCI/ADR-RES, in the experiment with OVCAR-4, in the experiment with SN12C, with ACHN and in the experiment on T47D was > 100 µM (inactive) throughout. Besides, the GI50 in the experiment on OVCAR-3, with IGROV-1, in the experiment on MDA-MB-231, in the experiment with Malme-3M, with TK-10 and in the experiment with CCRF-CEM was > 100 µM (inactive) each time.
Consider `CC1(C)CCC2(C(=O)OC3OC(CO)C(O)C(O)C3O)CCC3(C)C(=CCC4C5(C)CCC(OC6OC(CO)C(O)C(O)C6O)C(C)(C)C5CCC43C)C2C1` (stereo not given), for which the GI50 in the experiment on RXF 393 is > 25 µM (inactive); with HL-60 it was 4.41 µM (inactive); in the experiment on UO-31, > 25 µM (inactive); with HCT-116 it was 8.61 µM (inactive); in the experiment with HT-29, 9.46 µM (inactive); in the experiment with NCI-H226, 10.5 µM (inactive). Besides, the GI50 in the experiment on PC-3 was 13.6 µM (inactive); in the experiment with OVCAR-4 it was 11.8 µM (inactive); in the experiment with SN12C, 10.9 µM (inactive); with ACHN, > 25 µM (inactive); with T47D it was 6.4 µM (inactive); in the experiment on OVCAR-3 it was > 25 µM (inactive). Further, the GI50 in the experiment with IGROV-1 is 14.1 µM (inactive); in the experiment with MDA-MB-231, 9.98 µM (inactive); with MDA-MB-435 it was 7.16 µM (inactive); in the experiment with Malme-3M, 9.77 µM (inactive); in the experiment with TK-10 it was > 25 µM (inactive); in the experiment on EKVX, > 25 µM (inactive). For the same molecule, in the experiment on CCRF-CEM, the GI50 was 4.51 µM (inactive).
`CCc1cccc(CC)c1Nc1nc(-c2ccccc2-c2ccccc2)cs1`: the GI50 was > 100 µM (inactive) in the experiment with RXF 393; 55.7 µM (inactive) in the experiment with HL-60; 64.4 µM (inactive) with UO-31; 51.2 µM (inactive) in the experiment on HCT-116; 53.2 µM (inactive) in the experiment with PC-3; > 100 µM (inactive) in the experiment with OVCAR-4. The GI50 was > 100 µM (inactive) in the experiment on SN12C; > 100 µM (inactive) in the experiment on ACHN; > 100 µM (inactive) with T47D; 57.1 µM (inactive) in the experiment with OVCAR-3; 43.7 µM (inactive) in the experiment with IGROV-1; > 100 µM (inactive) in the experiment with MDA-MB-231. In addition, the GI50 with MDA-MB-435 is 35 µM (inactive); with Malme-3M, > 100 µM (inactive); in the experiment on TK-10 it was 82.2 µM (inactive); in the experiment with EKVX, > 100 µM (inactive); with CCRF-CEM, > 100 µM (inactive).
Consider `O=c1[nH]c(=O)n(C2OC(CO)C(O)C2O)c2ncc(-c3ccc(-c4ccccc4)cc3)nc12` (stereo not given), for which the GI50 in the experiment on RXF 393, in the experiment on UO-31, with HCT-116, in the experiment with HT-29, in the experiment on NCI-H226 and in the experiment on PC-3 was > 20 µM (inactive) in each case. Also, the GI50 with NCI/ADR-RES, with OVCAR-4, in the experiment with SN12C, in the experiment on ACHN, in the experiment on T47D and in the experiment on IGROV-1 was > 20 µM (inactive) in each case. Also, the GI50 in the experiment with MDA-MB-231, with MDA-MB-435, in the experiment on Malme-3M, in the experiment with TK-10, in the experiment with EKVX and with CCRF-CEM was > 20 µM (inactive) in each case.
In the case of `COc1cccc2c1C(=O)c1c(O)c3c(c(O)c1C2=O)C[C@H](O)C[C@@H]3OC1CC(N)C(O)C(C)O1` (stereo not given in full), the GI50 with RXF 393 was 6.58 µM (inactive); in the experiment on UO-31, 2.24 µM (inactive); in the experiment with HCT-116, 0.245 µM (active); in the experiment on HT-29, 2.09 µM (inactive); with NCI-H226 it was 1.08 µM (active); with PC-3, 2.09 µM (inactive). Further, the GI50 was 13.4 µM (inactive) in the experiment with NCI/ADR-RES; 4.36 µM (inactive) with OVCAR-4; 1.17 µM (inactive) with ACHN; 1.21 µM (inactive) in the experiment with T47D; 1.85 µM (inactive) with OVCAR-3; 1.57 µM (inactive) in the experiment on IGROV-1. In addition, the GI50 in the experiment with MDA-MB-231 was 1.78 µM (inactive); in the experiment with MDA-MB-435, 1.82 µM (inactive); in the experiment with Malme-3M, 0.843 µM (active); with TK-10 it was 1.49 µM (inactive); in the experiment on EKVX it was 5.21 µM (inactive); with CCRF-CEM, 0.259 µM (active).
Take `CCc1n[nH]c(=O)n1CCCCCCCCCCCCn1c(CC)n[nH]c1=O`: the GI50 with RXF 393 is 37 µM (inactive); in the experiment on UO-31, 30.7 µM (inactive); in the experiment with HCT-116, 27 µM (inactive); with HT-29, 32.7 µM (inactive); with NCI-H226, 36.9 µM (inactive); in the experiment on PC-3 it was 27.5 µM (inactive). For the same molecule, the GI50 in the experiment with NCI/ADR-RES was 28.6 µM (inactive); in the experiment on OVCAR-4 it was 20.3 µM (inactive); with SN12C it was 59.8 µM (inactive); in the experiment on ACHN, 25.2 µM (inactive); in the experiment on T47D, 18 µM (inactive); with OVCAR-3, 37.8 µM (inactive). The GI50 in the experiment with IGROV-1 was 29.5 µM (inactive); in the experiment with MDA-MB-231 it was 28.1 µM (inactive); with MDA-MB-435, 23.1 µM (inactive); in the experiment on Malme-3M it was 25.9 µM (inactive); in the experiment on TK-10, 33 µM (inactive); in the experiment on EKVX, 32 µM (inactive). The GI50 in the experiment on CCRF-CEM is 18.7 µM (inactive).
In the case of `COC(=O)c1ccccc1/C=C1\Cc2c(C)c3c(c(C)c2C1=O)CCC3`, the GI50 in the experiment with RXF 393, in the experiment with HL-60, in the experiment with UO-31, in the experiment with HCT-116, in the experiment on HT-29 and with NCI-H226 was > 100 µM (inactive) throughout. In addition, the GI50 is > 100 µM (inactive) with PC-3; > 100 µM (inactive) with NCI/ADR-RES; 30.1 µM (inactive) in the experiment with OVCAR-4; > 100 µM (inactive) in the experiment with SN12C; > 100 µM (inactive) in the experiment on ACHN; > 100 µM (inactive) in the experiment with T47D. Moreover, the GI50 with OVCAR-3, in the experiment on IGROV-1, with MDA-MB-435, in the experiment on Malme-3M, in the experiment on TK-10 and with EKVX was > 100 µM (inactive) each time. Also, the GI50 in the experiment with CCRF-CEM was > 100 µM (inactive).
Consider `CC1OC(OC2C(O)COC(OC3C(C)OC(OC4C(OC(=O)[C@]56CCC(C)(C)C[C@@H]5C5=CCC7[C@@]8(C)C[C@H](O)[C@H](OC9OC(CO)C(O)C(OC%10OC(CO)C(O)C(O)C%10O)C9O)[C@@](C)(CO)[C@@H]8CC[C@@]7(C)[C@]5(C)CC6)OCC(O)C4O)C(O)C3OC3OCC(O)(CO)C3O)C2O)C(O)C(O)C1O` (stereo not given in full), for which the GI50 is 7.67 µM (inactive) in the experiment on RXF 393; 3.56 µM (inactive) in the experiment with UO-31; 11.2 µM (inactive) with HCT-116; 12.3 µM (inactive) in the experiment on NCI-H226; 6 µM (inactive) with PC-3; 7.35 µM (inactive) in the experiment on NCI/ADR-RES. The GI50 in the experiment on OVCAR-4 is 7.94 µM (inactive); in the experiment on SN12C it was 3.66 µM (inactive); in the experiment with ACHN, 9.68 µM (inactive); in the experiment on T47D, 6.92 µM (inactive); with OVCAR-3, 9.64 µM (inactive); in the experiment with MDA-MB-231, 8.05 µM (inactive). The GI50 is 11.5 µM (inactive) in the experiment with MDA-MB-435; 5 µM (inactive) with Malme-3M; 9.79 µM (inactive) with TK-10; 5.83 µM (inactive) with EKVX; 6.14 µM (inactive) in the experiment with CCRF-CEM.
Take `O=C1N(CN2CCOCC2)CN(CN2CCOCC2)C(=O)N1Cc1ccc(-c2ccc(CN3C(=O)N(CN4CCOCC4)CN(CN4CCOCC4)C3=O)cc2)cc1`: the GI50 in the experiment on RXF 393 is 10.8 µM (inactive); in the experiment with UO-31, 19.4 µM (inactive); in the experiment with HCT-116 it was 7.6 µM (inactive); with HT-29, 19.6 µM (inactive); with NCI-H226, > 46.2 µM (inactive); in the experiment on PC-3, 20.8 µM (inactive). In addition, the GI50 in the experiment with NCI/ADR-RES is 17.3 µM (inactive); with OVCAR-4, 14 µM (inactive); with ACHN, 27.4 µM (inactive); in the experiment with T47D, 24 µM (inactive); in the experiment on OVCAR-3 it was 7.78 µM (inactive); with IGROV-1 it was 11.6 µM (inactive). The GI50 in the experiment with MDA-MB-231 was 26.5 µM (inactive); in the experiment with MDA-MB-435 it was 2.63 µM (inactive); in the experiment with Malme-3M, 13.2 µM (inactive); in the experiment on TK-10 it was 16.5 µM (inactive); with EKVX, 21.7 µM (inactive).
Turning to `CC(C)C[C@H](NC(=O)CCc1cccc2ccccc12)B(O)O`, the GI50 in the experiment on RXF 393 was 0.54 µM (active); in the experiment on UO-31, 1.94 µM (inactive); in the experiment on HCT-116, 0.473 µM (active); in the experiment on HT-29 it was 0.628 µM (active); in the experiment with NCI-H226, 0.161 µM (active); with PC-3, 3.9 µM (inactive). Further, the GI50 in the experiment with NCI/ADR-RES is 1.95 µM (inactive); in the experiment with OVCAR-4 it was 4.56 µM (inactive); with SN12C it was 2.19 µM (inactive); in the experiment on ACHN, 0.498 µM (active); in the experiment with T47D it was 1.25 µM (inactive); in the experiment on OVCAR-3, 0.463 µM (active). The GI50 in the experiment on IGROV-1 is 2.13 µM (inactive); in the experiment with MDA-MB-231, 2.25 µM (inactive); in the experiment with MDA-MB-435 it was 0.31 µM (active); with Malme-3M, 0.871 µM (active); in the experiment on TK-10, 0.578 µM (active); with EKVX it was 5.27 µM (inactive).
